According to ChEMBL document CHEMBL5376003, “Structure-Activity Relationship of FL118 Platform Position 7 Versus Position 9-Derived Compounds and Their Mechanism of Action and Antitumor Activity” (J Med Chem, 2023):
Calls of active or inactive are those of the source. The calls are words filed in the database; no cut-off is given here.

What was measured:
PDX14244 = assay: Antitumor activity against human PDX14244 cells xenografted in SCID mouse model assessed as reduction in tumor volume at 2 mg/kg,po administrated once per week for 3 weeks; type: functional, organism-based
HCT-116 [1] = assay: Induction of apoptosis in human HCT-116 cells assessed as modulation of DDX19B mRNA expression at 10 to 500 nM incubated for 6 to 48 hrs by RNA analysis; type: functional, cell-based; details: dose 10-500 nM, time 6-48 hrs
HCT-116 [2] = assay: Induction of apoptosis in human HCT-116 cells assessed as downregulation of Survivin protein expression incubated for 48 hrs by Western blotting analysis; type: functional, cell-based
PDX27454 [3] = assay: Antitumor activity against human PDX27454 cells xenografted in SCID mouse model assessed as reduction in tumor volume at 2 mg/kg,po administrated once per week for 3 weeks; type: functional, organism-based
HCT-116 [4] = assay: Induction of apoptosis in human HCT-116 cells assessed as increase in intracellular ROS level at 10 to 1000 nM incubated for 12 hrs by DCFH-DA staining based fluorescence microscopy; type: functional, cell-based; details: dose 10-1000 nM
HCT-116 [5] = assay: Inhibition of cell migration in human HCT-116 cells assessed as intercellular distance at 5 nM by inverted phase-contrast microscopic analysis (reference value: 2.5 +/- 0.7 millimeter); type: functional
HCT-116 [6] = assay: Induction of apoptosis in human HCT-116 cells assessed as downregulation of NT5C3A gene expression at 10 to 500 nM incubated for 6 to 48 hrs by RNA analysis; type: functional, cell-based; details: dose 10-500 nM, time 6-48 hrs
HCT-116 [7] = assay: Induction of apoptosis in human HCT-116 cells assessed as downregulation of AK2 gene expression at 10 to 500 nM incubated for 6 to 48 hrs by RNA analysis; type: functional, cell-based; details: dose 10-500 nM, time 6-48 hrs
HCT-116 [8] = assay: Induction of apoptosis in human HCT-116 cells assessed as downregulation of AK8 gene expression at 10 to 500 nM incubated for 6 to 48 hrs by RNA analysis; type: functional, cell-based; details: dose 10-500 nM, time 6-48 hrs
HCT-116 [9] = assay: Induction of apoptosis in human HCT-116 cells assessed as downregulation of TK1 gene expression at 10 to 500 nM incubated for 6 to 48 hrs by RNA analysis; type: functional, cell-based; details: dose 10-500 nM, time 6-48 hrs
HCT-116 [10] = assay: Induction of apoptosis in human HCT-116 cells assessed as increase in intracellular ROS level incubated for 48 hrs by DCFH-DA staining based fluorescence microscopy; type: functional, cell-based
HCT-116 [11] = assay: Induction of apoptosis in human HCT-116 cells assessed as downregulation of NUP210 gene expression at 10 to 500 nM incubated for 6 to 48 hrs by RNA analysis; type: functional, cell-based; details: dose 10-500 nM, time 6-48 hrs
HCT-116 [12] = assay: Induction of apoptosis in human HCT-116 cells assessed as downregulation of BIRC5 mRNA expression at 10 to 500 nM incubated for 6 to 48 hrs by RNA analysis; type: functional, cell-based; details: dose 10-500 nM, time 6-48 hrs
HCT-116 [13] = assay: Induction of apoptosis in human HCT-116 cells assessed as downregulation of NUP85 gene expression at 10 to 500 nM incubated for 6 to 48 hrs by RNA analysis; type: functional, cell-based; details: dose 10-500 nM, time 6-48 hrs
HCT-116 [14] = assay: Induction of apoptosis in human HCT-116 cells assessed as downregulation of NUP133 gene expression at 10 to 500 nM incubated for 6 to 48 hrs by RNA analysis; type: functional, cell-based; details: dose 10-500 nM, time 6-48 hrs
HCT-116 [15] = assay: Induction of apoptosis in human HCT-116 cells assessed as downregulation of NUP205 gene expression at 10 to 500 nM incubated for 6 to 48 hrs by RNA analysis; type: functional, cell-based; details: dose 10-500 nM, time 6-48 hrs
HCT-116 [16] = assay: Induction of apoptosis in human HCT-116 cells assessed as downregulation of BCL2 mRNA expression at 10 to 500 nM incubated for 6 to 48 hrs by RNA analysis; type: functional, cell-based; details: dose 10-500 nM, time 6-48 hrs
PDX27454 [17] = assay: Antitumor activity against human PDX27454 cells xenografted in SCID mouse model assessed as reduction in tumor volume at 8 mg/kg,po administrated once per week for 3 weeks; type: functional, organism-based
HCT-116 [18] = assay: Induction of apoptosis in human HCT-116 cells assessed as downregulation of NDC1 gene expression at 10 to 500 nM incubated for 6 to 48 hrs by RNA analysis; type: functional, cell-based; details: dose 10-500 nM, time 6-48 hrs
HCT-116 [19] = assay: Induction of apoptosis in human HCT-116 cells assessed as downregulation of HK2 gene expression at 10 to 500 nM incubated for 6 to 48 hrs by RNA analysis; type: functional, cell-based; details: dose 10-500 nM, time 6-48 hrs
HCT-116 [20] = assay: Induction of apoptosis in human HCT-116 cells assessed as downregulation of AMPD3 gene expression at 10 to 500 nM incubated for 6 to 48 hrs by RNA analysis; type: functional, cell-based; details: dose 10-500 nM, time 6-48 hrs
HCT-116 [21] = assay: Induction of apoptosis in human HCT-116 cells assessed as downregulation of TPI1 gene expression at 10 to 500 nM incubated for 6 to 48 hrs by RNA analysis; type: functional, cell-based; details: dose 10-500 nM, time 6-48 hrs
HCT-116 [22] = assay: Induction of apoptosis in human HCT-116 cells assessed as increase in intracellular ROS level at 10 to 1000 nM incubated for 4 to 8 hrs by DCFH-DA staining based fluorescence microscopy; type: functional, cell-based; details: dose 10-1000 nM, time 4-8 hrs
HepG2 = assay: Growth inhibition of human HepG2 cells incubated for 48 hrs by MTT reagent based ELISA reader analysis; type: functional, cell-based; details: HepG2, 48 h
HCT-116 [23] = assay: Induction of apoptosis in human HCT-116 cells assessed as modulation of TOP1 mRNA expression at 10 to 500 nM incubated for 6 to 48 hrs by RNA analysis; type: functional, cell-based; details: dose 10-500 nM, time 6-48 hrs
HCT-116 [24] = assay: Induction of apoptosis in human HCT-116 cells assessed as downregulation of PRIM1 mRNA expression at 10 to 500 nM incubated for 6 to 48 hrs by RNA analysis; type: functional, cell-based; details: dose 10-500 nM, time 6-48 hrs
HCT-116 [25] = assay: Induction of apoptosis in human HCT-116 cells assessed as upregulation of Bax mRNA expression at 10 to 500 nM incubated for 6 to 48 hrs by RNA analysis; type: functional, cell-based; details: dose 10-500 nM, time 6-48 hrs
HCT-116 [26] = assay: Induction of apoptosis in human HCT-116 cells assessed as downregulation of NUP93 gene expression at 10 to 500 nM incubated for 6 to 48 hrs by RNA analysis; type: functional, cell-based; details: dose 10-500 nM, time 6-48 hrs
HeLa = assay: Growth inhibition of human HeLa cells incubated for 48 hrs by MTT reagent based ELISA reader analysis; type: functional, cell-based
HCT-116 [27] = assay: Induction of apoptosis in human HCT-116 cells assessed as downregulation of NT5C gene expression at 10 to 500 nM incubated for 6 to 48 hrs by RNA analysis; type: functional, cell-based; details: dose 10-500 nM, time 6-48 hrs
HCT-116 [28] = assay: Induction of apoptosis in human HCT-116 cells assessed as downregulation of PRKACB gene expression at 10 to 500 nM incubated for 6 to 48 hrs by RNA analysis; type: functional, cell-based; details: dose 10-500 nM, time 6-48 hrs
HCT-116 [29] = assay: Activation of innate immune response in human HCT-116 cells assessed as upregulation of CASP1 gene expression at 10 to 500 nM incubated for 6 to 48 hrs by RNA analysis; type: functional, cell-based; details: dose 10-500 nM, time 6-48 hrs
HCT-116 [30] = assay: Induction of apoptosis in human HCT-116 cells assessed as downregulation of ADPGK gene expression at 10 to 500 nM incubated for 6 to 48 hrs by RNA analysis; type: functional, cell-based; details: dose 10-500 nM, time 6-48 hrs
HCT-116 [31] = assay: Induction of apoptosis in human HCT-116 cells assessed as downregulation of HPRT1 gene expression at 10 to 500 nM incubated for 6 to 48 hrs by RNA analysis; type: functional, cell-based; details: dose 10-500 nM, time 6-48 hrs

SMILES	Activity (HCT-116 [1])	Activity (HCT-116 [4])	Activity (HCT-116 [5])	Activity (HCT-116 [6])	Activity (HCT-116 [7])	Activity (HCT-116 [8])	Activity (HCT-116 [9])	Activity (HCT-116 [10])	Activity (HCT-116 [11])	Activity (HCT-116 [12])	Activity (HCT-116 [13])	Activity (HCT-116 [14])	Activity (HCT-116 [15])	Activity (HCT-116 [16])	Activity (HCT-116 [18])	Activity (HCT-116 [19])	Activity (HCT-116 [20])	Activity (HCT-116 [21])	Activity (HCT-116 [22])	IC50 (HepG2)	also measured
CC[C@@]1(O)C(=O)OCc2c1cc1n(c2=O)Cc2c-1nc1cc3c(cc1c2-c1cc(OC)cc(OC)c1)OCO3	Active	Active	2.7 mm	Active	Active	Active	Active	Dose-Dependent Effect	Active	Active	Active	Active	Active	Active	Active	Active	Active	Active	Active	118 nM	Activity (PDX14244): Active; Activity (HCT-116 [2]): Active; Activity (PDX27454 [3]): Active; Activity (PDX27454 [17]): Active; Activity (HCT-116 [23]): Active; Activity (HCT-116 [24]): Active; Activity (HCT-116 [25]): Active; Activity (HCT-116 [26]): Active; IC50 (HeLa): < 6.4 nM; Activity (HCT-116 [27]): Active
CC[C@@]1(O)C(=O)OCc2c1cc1n(c2=O)Cc2c-1nc1cc3c(cc1c2-c1ccc(OC)cc1)OCO3	Active	Active	2.8 mm	Active	Active	Active	Active	Dose-Dependent Effect	Active	Active	Active	Active	Active	Active	Active	Active	Active	Active	Active	64 nM	Activity (PDX14244): Active; Activity (HCT-116 [28]): Active; Activity (HCT-116 [2]): Active; Activity (PDX27454 [3]): Active; Activity (PDX27454 [17]): Active; Activity (HCT-116 [29]): Active; Activity (HCT-116 [23]): Active; Activity (HCT-116 [24]): Active; Activity (HCT-116 [25]): Active; Activity (HCT-116 [30]): Active; Activity (HCT-116 [26]): Active; IC50 (HeLa): 48.3 nM; Activity (HCT-116 [27]): Active; Activity (HCT-116 [31]): Active
CC[C@@]1(O)C(=O)OCc2c1cc1n(c2=O)Cc2cc3cc4c(cc3nc2-1)OCO4	Active	Active	2.6 mm	Active	Active	Active	Active	Dose-Dependent Effect	Active	Active	Active	Active	Active	Active	Active	Active	Active	Active	Active	39.5 nM	Activity (HCT-116 [28]): Active; Activity (HCT-116 [29]): Active; Activity (HCT-116 [23]): Active; Activity (HCT-116 [24]): Active; Activity (HCT-116 [25]): Active; Activity (HCT-116 [30]): Active; Activity (HCT-116 [26]): Active; IC50 (HeLa): 32.4 nM; Activity (HCT-116 [27]): Active; Activity (HCT-116 [31]): Active
CCc1ccc(-c2c3c(nc4cc5c(cc24)OCO5)-c2cc4c(c(=O)n2C3)COC(=O)[C@]4(O)CC)cc1	Active	Active	2.6 mm	Active	Active	Active	Active	Dose-Dependent Effect	Active	Active	Active	Active	Active	Active	Active	Active	Active	Active	Active	160 nM	Activity (PDX14244): Active; Activity (HCT-116 [28]): Active; Activity (HCT-116 [2]): Active; Activity (PDX27454 [3]): Active; Activity (PDX27454 [17]): Active; Activity (HCT-116 [29]): Active; Activity (HCT-116 [23]): Active; Activity (HCT-116 [24]): Active; Activity (HCT-116 [25]): Active; Activity (HCT-116 [30]): Active; Activity (HCT-116 [26]): Active; IC50 (HeLa): 37.5 nM; Activity (HCT-116 [27]): Active; Activity (HCT-116 [31]): Active
